From article PMC11421850, “Identification of pharmacological inducers of a reversible hypometabolic state for whole organ preservation” (eLife, 2024)

Target: T1, delta opioid receptor (DOR) (Homo sapiens, UniProt P41143)
T1 construct: gene OPRD1
Assay: biochemical

T1 sequence (P41143 whole entry): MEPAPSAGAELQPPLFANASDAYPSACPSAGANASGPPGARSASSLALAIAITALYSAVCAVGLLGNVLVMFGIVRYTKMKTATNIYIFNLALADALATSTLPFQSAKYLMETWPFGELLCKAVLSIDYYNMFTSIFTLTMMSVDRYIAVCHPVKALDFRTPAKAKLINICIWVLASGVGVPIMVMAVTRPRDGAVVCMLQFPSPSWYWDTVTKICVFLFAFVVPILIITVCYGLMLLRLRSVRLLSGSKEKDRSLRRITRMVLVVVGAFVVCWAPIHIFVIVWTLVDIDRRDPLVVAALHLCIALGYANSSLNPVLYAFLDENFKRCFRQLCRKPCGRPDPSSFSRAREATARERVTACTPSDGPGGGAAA

Compound: CCN(CC)C(=O)c1ccc([C@H](c2cccc(OC)c2)N2C[C@@H](C)OC[C@@H]2C)cc1 [WB3]
- IC50: 3.47 µM
